# Earlier results, collected in patent US11512068B2, “Process for the preparation of crystalline ridinilazole using acid addition salts” (Sandoz AG, priority 2017, dated 2022).
# Legend:
# Clostridium difficile [1] = test system: Clostridium difficile
# Clostridium difficile [2] = settings: treatment with ridinilazole
# [3] = phase 1 trial, oral
# clostridia = settings: phase 1 trial, oral
smiles,measurement,setting,value
"c1cc(-c2nc3ccc(-c4ccc5nc(-c6ccncc6)[nH]c5c4)cc3[nH]2)ccn1 [Ridinilazole, 5,5′bis[2-(4-pyridinyl)-1H-benzimidazole]]",post-antibiotic effect,Clostridium difficile [1],prolonged post-antibiotic effect
same,toxin production,Clostridium difficile [2],decreased toxin production
same,tolerability,[3],well tolerated
same,selectivity for clostridia over other faecal bacteria,clostridia,specifically targets clostridia whilst sparing other faecal bacteria
